Measurements as given in BindingDB's records for doi:10.1021/jm049388p (Merck Research Laboratories, 2004).

Molecular target: Beta-secretase 1 (Homo sapiens, UniProt P56817)
Experiment: In Vitro BACE1 Activity Assay
Details: pH 4.5; 22 °C
Method: The assay was performed using a 96-well format on a HPLC equipped with four 96-well plate holders. Test compounds were preincubated with enzymes for 30min, followed by the addition of substrate. The solution was then incubated for an additional 30 min at room temperature. After the reaction was terminated, the solution was filtered, and the filtrate was subjected to HPLC analysis. The substrate and product were monitored by fluorescence detection (340nm excitation, 440 nm emission).

Beta-secretase 1, sequence (P56817 whole entry): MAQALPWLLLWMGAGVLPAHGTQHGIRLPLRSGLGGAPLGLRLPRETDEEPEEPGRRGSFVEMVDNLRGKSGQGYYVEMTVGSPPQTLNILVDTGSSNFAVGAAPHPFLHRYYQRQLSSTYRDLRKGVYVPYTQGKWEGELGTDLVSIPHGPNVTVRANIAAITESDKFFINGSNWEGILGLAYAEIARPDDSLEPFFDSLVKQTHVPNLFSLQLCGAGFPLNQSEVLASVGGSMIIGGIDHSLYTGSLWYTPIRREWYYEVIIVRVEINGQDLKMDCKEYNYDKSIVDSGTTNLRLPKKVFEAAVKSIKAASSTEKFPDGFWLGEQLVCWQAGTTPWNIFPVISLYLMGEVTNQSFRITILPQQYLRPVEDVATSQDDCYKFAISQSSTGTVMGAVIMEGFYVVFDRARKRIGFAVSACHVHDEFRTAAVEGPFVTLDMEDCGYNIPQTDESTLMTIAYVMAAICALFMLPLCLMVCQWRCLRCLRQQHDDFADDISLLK

## C[C@H](NC(=O)c1cc(OCC(=O)NCCCCCN)cc(OS(=O)(=O)Cc2ccccc2)c1)c1ccccc1 [3-{[(5-aminopentyl)carbamoyl]methoxy}-5-{[(1S)-1-phenylethyl]carbamoyl}phenyl 1-phenylmethanesulfonate]
  IC50: > 100 µM
